Test system: T1, pPPO (purified kudzu polyphenol oxidase)
T1 construct: gene PPO; single prominent SDS-PAGE band approx. 21 kDa
Test: UV-visible spectrophotometry at […] nm, Lineweaver-Burk
Format: biochemical, Pueraria montana var. lobata
Conditions: catechol oxidation; activity assay in McIlvaine buffer pH 5.0, 25 °C

`Oc1ccccc1O` [catechol] showed a Km of 23.5 mM.
